This experiment deals with T1, Recombinant N-terminal GST tag full-length human HDAC8 (Homo sapiens, UniProt Q9BY41).
T1 construct: Recombinant N-terminal GST tag full-length human HDAC8; purchased SignalChem H90-30G-1000; host or cells: baculovirus in Sf9 insect cells
T1 sequence (Q9BY41 1-377): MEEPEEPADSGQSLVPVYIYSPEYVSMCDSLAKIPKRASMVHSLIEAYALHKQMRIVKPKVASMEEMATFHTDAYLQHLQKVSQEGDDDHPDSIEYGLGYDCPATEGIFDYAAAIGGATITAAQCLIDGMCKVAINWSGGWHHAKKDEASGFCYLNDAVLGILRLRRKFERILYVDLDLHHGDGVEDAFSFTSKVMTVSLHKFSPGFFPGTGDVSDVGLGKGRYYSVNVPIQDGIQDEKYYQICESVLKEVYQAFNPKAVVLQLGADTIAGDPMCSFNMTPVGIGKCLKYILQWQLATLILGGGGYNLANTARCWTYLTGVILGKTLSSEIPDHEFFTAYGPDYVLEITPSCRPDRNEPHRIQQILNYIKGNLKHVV
As to the kind of experiment: HDAC8 probe binding assay, time resolved fluorescence (TRF) format. As to conditions: compounds grouped by IC50 range (Table 2). Here is the method:
The HDAC8 probe binding assay was performed using a time resolved fluorescence (TRF) assay format. Recombinant N-terminal GST tag full-length human HDAC8 was expressed and purified from baculovirus in Sf9 insect cells (SignalChem, #[…]-1000). […] Plates were incubated for 16 hours at room temperature before time resolved fluorescence was read on the Envision (Excitation at 340 nm, and Emission at 485 nm and 535 nm, Perkin Elmer). Data from HDAC8 Assays were reported as percent inhibition (inh) compared with control wells based on the following equation: % inh=1-((FLU-AveLow)/(AveHigh-AveLow)) where FLU=measured time resolved fluorescence. AveLow=average time resolved fluorescence of no enzyme control (n=32). AveHigh=average time resolved fluorescence of DMSO control (n=32). IC50 values were determined by curve fitting of the standard 4 parameter logistic fitting algorithm included in the Activity Base software package: IDBS XE Designer Model205. Data is fitted using the Levenburg Marquardt algorithm. Ranges of IC50 values for compounds of the invention are disclosed in Table 2: Table 2. provides the compounds arranged according to […] determined in a time resolved fluorescence (TRF) assay. The compounds are separated into four groups: […]
On to `Cc1nc2ccc(CN3C(=O)COc4ccc(C(=O)NO)cc43)cc2o1` [Compound I-239, N-hydroxy-4-((2-methylbenzo[d]oxazol-6-yl)methyl)-3-oxo-3,4-dihydro-2H-benzo[b][1,4]oxazine-6-carboxamide], for which the IC50 was at most 25 nM.

Turning to `Cn1cc2ccc(CN3C(=O)COc4ccc(C(=O)NO)cc43)cc2n1` [Compound I-240, N-hydroxy-4-((2-methyl-2H-indazol-6-yl)methyl)-3-oxo-3,4-dihydro-2H-benzo[b][1,4]oxazine-6-carboxamide], the IC50 is at most 25 nM. `Cc1cc2oc(CN3C(=O)COc4ccc(C(=O)NO)cc43)nc2cc1Cl` [Compound I-261, 4-((5-chloro-6-methylbenzo[d]oxazol-2-yl)methyl)-N-hydroxy-3-oxo-3,4-dihydro-2H-benzo[b][1,4]oxazine-6-carboxamide]: the IC50 is at most 25 nM. Turning to `O=C(NO)c1ccc2c(c1)N(Cc1ccc(C(F)(F)F)c(F)c1)C(=O)CO2` [Compound I-266, 4-(3-fluoro-4-(trifluoromethyl)benzyl)-N-hydroxy-3-oxo-3,4-dihydro-2H-benzo[b][1,4]oxazine-6-carboxamide], the half-inhibitory concentration (IC50) is at most 25 nM. Under `O=C(NO)c1ccc2c(c1)N(Cc1nc3ccc(Cl)cc3o1)C(=O)CO2` [Compound I-287, 4-((6-chlorobenzo[d]oxazol-2-yl)methyl)-N-hydroxy-3-oxo-3,4-dihydro-2H-benzo[b][1,4]oxazine-6-carboxamide] stands at most 25 nM; under `O=C(NO)c1ccc2c(c1)N(Cc1nc3ccccc3s1)C(=O)CO2` [Compound I-289, 4-(benzo[d]thiazol-2-ylmethyl)-N-hydroxy-3-oxo-3,4-dihydro-2H-benzo[b][1,4]oxazine-6-carboxamide], at most 25 nM; under `CC1(C)Oc2ccc(C(=O)NO)cc2N(Cc2nc3ccc(F)cc3o2)C1=O` [Compound I-291, 4-((6-fluorobenzo[d]oxazol-2-yl)methyl)-N-hydroxy-2,2-dimethyl-3-oxo-3,4-dihydro-2H-benzo[b][1,4]oxazine-6-carboxamide], at most 25 nM. On to `CC1(C)Oc2ccc(C(=O)NO)cc2N(Cc2nc3ccc(Cl)cc3o2)C1=O` [Compound I-294, 4-((6-chlorobenzo[d]oxazol-2-yl)methyl)-N-hydroxy-2,2-dimethyl-3-oxo-3,4-dihydro-2H-benzo[b][1,4]oxazine-6-carboxamide], for which the IC50 is at most 25 nM. Regarding `CC1(C)Oc2ccc(C(=O)NO)cc2N(Cc2nc3ccccc3s2)C1=O` [Compound I-295, 4-(benzo[d]thiazol-2-ylmethyl)-N-hydroxy-2,2-dimethyl-3-oxo-3,4-dihydro-2H-benzo[b][1,4]oxazine-6-carboxamide], the IC50 lay within 25 to 100 nM. The figure for `CC1(C)Oc2ccc(C(=O)NO)cc2N(CCCc2ccccc2)C1=O` [Compound I-298, N-hydroxy-2,2-dimethyl-3-oxo-4-(3-phenylpropyl)-3,4-dihydro-2H-benzo[b][1,4]oxazine-6-carboxamide] is 25 to 100 nM; for `CC1(C)Oc2ccc(C(=O)NO)cc2N(Cc2c(Cl)cccc2Cl)C1=O` [Compound I-299, 4-(2,6-dichlorobenzyl)-N-hydroxy-2,2-dimethyl-3-oxo-3,4-dihydro-2H-benzo[b][1,4]oxazine-6-carboxamide] it is 25 to 100 nM; for `CC1(C)Oc2ccc(C(=O)NO)cc2N(Cc2cccc(C(F)(F)F)c2)C1=O` [Compound I-300, N-hydroxy-2,2-dimethyl-3-oxo-4-(3-(trifluoromethyl)benzyl)-3,4-dihydro-2H-benzo[b][1,4]oxazine-6-carboxamide] it is 25 to 100 nM. Under `CC1(C)Oc2ccc(C(=O)NO)cc2N(Cc2ccccc2OC(F)(F)F)C1=O` [Compound I-302, N-hydroxy-2,2-dimethyl-3-oxo-4-(2-(trifluoromethoxy)benzyl)-3,4-dihydro-2H-benzo[b][1,4]oxazine-6-carboxamide] stands 25 to 100 nM; under `C[C@@H](c1ccccc1)N1C(=O)C(C)(C)Oc2ccc(C(=O)NO)cc21` [Compound I-303, (S)-N-hydroxy-2,2-dimethyl-3-oxo-4-(1-phenylethyl)-3,4-dihydro-2H-benzo[b][1,4]oxazine-6-carboxamide], 25 to 100 nM; under `CC1(C)Oc2ccc(C(=O)NO)cc2N(Cc2ccc(C(F)(F)F)cc2)C1=O` [Compound I-305, N-hydroxy-2,2-dimethyl-3-oxo-4-(4-(trifluoromethyl)benzyl)-3,4-dihydro-2H-benzo[b][1,4]oxazine-6-carboxamide], 25 to 100 nM. Turning to `CC1(C)Oc2ccc(C(=O)NO)cc2N(Cc2ccc(-c3ccccc3)cc2)C1=O` [Compound I-306, 4-([1,1′-biphenyl]-4-ylmethyl)-N-hydroxy-2,2-dimethyl-3-oxo-3,4-dihydro-2H-benzo[b][1,4]oxazine-6-carboxamide], the IC50 is 25 to 100 nM.

As to `CC1(C)Oc2ccc(C(=O)NO)cc2N(Cc2nc(-c3ccccc3)sc2Cl)C1=O` [Compound I-308, 4-((5-chloro-2-phenylthiazol-4-yl)methyl)-N-hydroxy-2,2-dimethyl-3-oxo-3,4-dihydro-2H-benzo[b][1,4]oxazine-6-carboxamide], the IC50 is 25 to 100 nM.

As for `CC1(C)Oc2ccc(C(=O)NO)cc2N(Cc2nc(-c3ccccc3)sc2Cc2ccccc2)C1=O` [Compound I-309, 4-((5-benzyl-2-phenylthiazol-4-yl)methyl)-N-hydroxy-2,2-dimethyl-3-oxo-3,4-dihydro-2H-benzo[b][1,4]oxazine-6-carboxamide], the IC50 is over 1000 nM. As for `CC1(C)Oc2ccc(C(=O)NO)cc2N(Cc2ccc(Cl)c(Cl)c2)C1=O` [Compound I-312, 4-(3,4-dichlorobenzyl)-N-hydroxy-2,2-dimethyl-3-oxo-3,4-dihydro-2H-benzo[b][1,4]oxazine-6-carboxamide], the IC50 fell in the range of 25 to 100 nM.

As for `CC1(C)Oc2ccc(C(=O)NO)cc2N(Cc2ccc3ccccc3c2)C1=O` [Compound I-317, N-hydroxy-2,2-dimethyl-4-(naphthalen-2-ylmethyl)-3-oxo-3,4-dihydro-2H-benzo[b][1,4]oxazine-6-carboxamide], the IC50 is 25 to 100 nM. As for `CC1(C)Oc2ccc(C(=O)NO)cc2N(C/C=C/c2ccccc2)C1=O` [Compound I-318, 4-cinnamyl-N-hydroxy-2,2-dimethyl-3-oxo-3,4-dihydro-2H-benzo[b][1,4]oxazine-6-carboxamide], the IC50 is at most 25 nM. Under `CC1(C)Oc2ccc(C(=O)NO)cc2N(Cc2cccc(OC(F)(F)F)c2)C1=O` [Compound I-319, N-hydroxy-2,2-dimethyl-3-oxo-4-(3-(trifluoromethoxy)benzyl)-3,4-dihydro-2H-benzo[b][1,4]oxazine-6-carboxamide] stands 25 to 100 nM. Turning to `CC1(C)Oc2ccc(C(=O)NO)cc2N(Cc2cc(-c3ccccc3)on2)C1=O` [Compound I-320, N-hydroxy-2,2-dimethyl-3-oxo-4-((5-phenylisoxazol-3-yl)methyl)-3,4-dihydro-2H-benzo[b][1,4]oxazine-6-carboxamide], the IC50 was at most 25 nM. `CC1(C)Oc2ccc(C(=O)NO)cc2N(Cc2ccc(C(F)(F)F)cc2F)C1=O` [Compound I-321, 4-(2-fluoro-4-(trifluoromethyl)benzyl)-N-hydroxy-2,2-dimethyl-3-oxo-3,4-dihydro-2H-benzo[b][1,4]oxazine-6-carboxamide]: the IC50 was at most 25 nM. As to `CC1(C)Oc2ccc(C(=O)NO)cc2N(Cc2ccc(OC(F)(F)F)cc2F)C1=O` [Compound I-322, 4-(2-fluoro-4-(trifluoromethoxy)benzyl)-N-hydroxy-2,2-dimethyl-3-oxo-3,4-dihydro-2H-benzo[b][1,4]oxazine-6-carboxamide], the IC50 lay within 25 to 100 nM. The figure for `O=C(NO)c1ccc2c(c1)N(Cc1ccc3ccccc3c1)C(=O)CO2` [Compound I-323, N-hydroxy-4-(naphthalen-2-ylmethyl)-3-oxo-3,4-dihydro-2H-benzo[b][1,4]oxazine-6-carboxamide] is at most 25 nM; for `O=C(NO)c1ccc2c(c1)N(Cc1cnc3[nH]ccc3c1)C(=O)CO2` [Compound I-324, 4-((1H-pyrrolo[2,3-b]pyridin-5-yl)methyl)-N-hydroxy-3-oxo-3,4-dihydro-2H-benzo[b][1,4]oxazine-6-carboxamide] it is 25 to 100 nM. Turning to `Cc1nn(C)c2ncc(CN3C(=O)COc4ccc(C(=O)NO)cc43)cc12` [Compound I-325, 4-((1,3-dimethyl-1H-pyrazolo[3,4-b]pyridin-5-yl)methyl)-N-hydroxy-3-oxo-3,4-dihydro-2H-benzo[b][1,4]oxazine-6-carboxamide], the IC50 is at most 25 nM. Under `Cc1cccc2nc(CN3C(=O)COc4ccc(C(=O)NO)cc43)cc(=O)n12` [Compound I-327, N-hydroxy-4-((6-methyl-4-oxo-4H-pyrido[1,2-a]pyrimidin-2-yl)methyl)-3-oxo-3,4-dihydro-2H-benzo[b][1,4]oxazine-6-carboxamide] stands 25 to 100 nM.

The values above are taken from patent publication US10370343B2, “[6,6] Fused bicyclic HDAC8 inhibitors” (FORMA Therapeutics, Inc., priority 2015, dated 2019).
